Where two headings read alike, the source gives them in different places.
Assays:
Wnt signaling pathway = assay: Activity assay of the reporter gene (Wnt signaling pathway activation, Wnt3a conditioned medium); format: cell-based; settings: for activation of the reporter gene systems of classical Wnt signaling pathway: in the way of depending on Wnt3a receptors; for Concentration of compounds for doubly synergetic activating Wnt reporter gene: with Wnt3a conditioned medium
Experimental: After 6 hours, the cells are collected and activities of the report genes are determined.
Activity Assay of the Reporter Gene
HEK293T, HCT116, SW480 or NIH3T3 cells used for activity assay of the reporter gene were inoculated into 24-wells plates respectively 24 hours before transfection then transfected following the above mentioned reference method. The amount of the plasmids used for Transfection was: 20 ng of TOPFlash, NFAT-Luc, or SRF-Luc, and 25 ng of EGFP-C1 (HEK293T); 25 ng of LEF-Luc, 75 ng of LEF1, and 25 ng of EGFP-C1 (NIH3T3); 100 ng of TOPFlash or Fopfllash and 100 ng of EGFP-C1 (HCT116 and SW480). The cells were transfected with other plasmids following experimental requirements, LacZs were added to meet a total content of 250 ng (in RNAi and plasmid co-transfection experiments, 1 μl of siRNA was added when every 100 ng/well of the plasmid was transfected). Wnt3a conditioned medium was added 18 hours after transfection to stimulate the cells for 6-8 hours, the cells were lysed using Boehringer Mannheim Luci-ferase Assay Kit (200 μl/well). Intensity of GFP proteins in cell lysates were determined as internal standards of expression quantity of the cells using fluorescence meter FL600 (BIO-TEK Inc. Winooski, Vt.), and then 20 μl of luciferase substrates were added. Luciferase activity was determined with Micro Lumate Plus (Perkin Elmer Inc. Wellesley, Mass.) luminometer. Finally, the luciferase activity was homogenized using activity of GFP.

in vitro = settings: human
Experimental: (§1) (1) Toxicity Experiment of the Compound on Huh7.5:
(§2) 100 μL of Huh7.5 cells (1×10^5/ml) was inoculated in 96-wells plates and incubated in an incubator at 37° C. under 5% of CO2 and saturated humidity for 24 hrs. Then different concentration of the compound of the present invention and positive control (VX-950, telaprevir) were added respectively and incubated for a further 72 hrs. 10 μL of MTT (5 mg/mL) was added per well and incubated for another 4 hrs. After the cells were lysed with DMSO, OD570-630 […] was determined on ELIASA. In comparison with OD of the control group, inhibitory rate of each concentration on cell toxicity was calculated, and half toxic concentration of the compound was calculated with Reed-Muench method.

HCV = assay: microbe, parasite or virus in culture; format: cell-based, Hepatitis C Virus (HCV); settings: Huh7.5 cells infected with HCV, intracellular HCV RNA by qRT-PCR, Reed-Muench method
Experimental: (2) Anti-HCV Activity of the Compound in Cells:
The total RNA was extracted from the cells. The intracellular content of HCV and RNA of internal control gene GAPDH were determined by real-time fluorescence qRT-PCR.

Huh7.5 cells = assay: in vitro
Experimental: as §1, §2

[1] = Hepatitis C virus, Huh7.5, 72 h

SMILES	CC50 at 72 h (in vitro)	EC50 (HCV; [1])	also measured
CCc1cccc2c1N(C)Cc1cc3c(cc1-2)OCO3 [Compound 9, 4-ethyl-5-methyl-5,6-dihydro-[1,3]dioxolo[4,5-j]phenanthridine]			activation of the reporter gene systems of classical Wnt signaling pathway (Wnt signaling pathway): activate the reporter gene systems of classical Wnt signaling pathway; Concentration of compounds for doubly synergetic activating Wnt reporter gene (Wnt signaling pathway): 3.75 µM
CCc1cccc2c1N(C)Cc1cc(O)c(O)cc1-2 [Compound 10, 4-ethyl-5-methyl-5,6-dihydro-phenanthridine-8,9-diol]	61.3 ± 8.4 µM	> 11.1 µM	
CCc1cccc2c1N(C)Cc1cc(OC)c(OC)cc1-2 [Compound 10a, 4-ethyl-5-methyl-8,9-dimethoxy-5,6-dihydro-phenanthridine]	> 100 µM	< 0.41 µM	
CCOc1cc2c(cc1OCC)-c1cccc(CC)c1N(C)C2 [Compound 10b, 4-ethyl-5-methyl-8,9-diethyoxy-5,6-dihydro-phenanthridine]			CC50 (Huh7.5 cells): > 100 µM; EC50 (HCV; 72 hrs, read-out: EC50): 1.63 ± 1.22 µM
C=CCOc1cc2c(cc1OCC=C)-c1cccc(CC)c1N(C)C2 [Compound 10c, 4-ethyl-5-methyl-8,9-diallyloxy-5,6-dihydro-phenanthridine]	> 100 µM	16.3 ± 10.1 µM	
C#CCOc1cc2c(cc1OCC#C)-c1cccc(CC)c1N(C)C2 [Compound 10d, 4-ethyl-5-methyl-8,9-diprop-2-ynyloxy-5,6-dihydro-phenanthridine]	58.3 ± 2.1 µM	0.83 ± 0.35 µM	
CCc1cccc2c1N(C)Cc1cc(OCC3CCC3)c(OCC3CCC3)cc1-2 [Compound 10e, 4-ethyl-5-methyl-8,9-bis-cyclobutylmethoxy-5,6-dihydro-phenanthridine]	> 100 µM	9.5 ± 2.71 µM	
CCc1cccc2c1N(C)Cc1cc(OCC3CCCCC3)c(OCC3CCCCC3)cc1-2 [Compound 10f, 4-ethyl-5-methyl-8,9-bis-cyclohexylmethoxy-5,6-dihydro-phenanthridine]	> 100 µM	10.8 ± 2.86 µM	
CCc1cccc2c1N(C)Cc1cc(OCc3ccccc3)c(OCc3ccccc3)cc1-2 [Compound 10g, 4-ethyl-5-methyl-8,9-dibenzyloxy-5,6-dihydro-phenanthridine]	30.2 ± 0.6 µM	1.25 ± 0.56 µM	
CCc1cccc2c1N(C)Cc1cc(OCc3cccc(OC)c3OC)c(OCc3cccc(OC)c3OC)cc1-2 [Compound 10h, 4-ethyl-5-methyl-8,9-di(2,3-dimethoxy)benzyloxy-5,6-dihydro-phenanthridine]			CC50 (Huh7.5 cells): > 100 µM; EC50 (HCV; 72 hrs, read-out: EC50): 4.32 ± 0.1 µM
CCc1cccc2c1N(C)Cc1cc(OC(C)=O)c(OC(C)=O)cc1-2 [Compound 10j, 4-ethyl-5-methyl-8,9-diacetoxy-5,6-dihydro-phenanthridine]	90.1 ± 7.4 µM	0.23 ± 0.08 µM	
CCc1cccc2c1N(C)Cc1cc(OC(=O)C(C)C)c(OC(=O)C(C)C)cc1-2 [Compound 10l, 4-ethyl-5-methyl-8,9-diisobutyryloxy-5,6-dihydro-phenanthridine]	> 100 µM	13.9 ± 11.4 µM	
CCCCC(=O)Oc1cc2c(cc1OC(=O)CCCC)-c1cccc(CC)c1N(C)C2 [Compound 10m, 4-ethyl-5-methyl-8,9-divaleryoxy-5,6-dihydro-phenanthridine]			CC50 (Huh7.5 cells): > 100 µM; EC50 (HCV; 72 hrs, read-out: EC50): 9.39 ± 0.46 µM
CCc1cccc2c1N(C)Cc1cc(OC(=O)CC(C)C)c(OC(=O)CC(C)C)cc1-2 [Compound 10n, 4-ethyl-5-methyl-8,9-diisovaleroxy-5,6-dihydro-phenanthridine]	50.3 ± 1 µM	1.43 ± 0.45 µM	
CCc1cccc2c1N(C)Cc1cc(OC(=O)c3ccccc3)c(OC(=O)c3ccccc3)cc1-2 [Compound 10o, 4-ethyl-5-methyl-8,9-dibenzoyloxy-5,6-dihydro-phenanthridine]	91.5 ± 4.19 µM	11 ± 2.23 µM	
CCc1cccc2c1N(C)Cc1cc(OC(=O)c3ccc(Br)cc3)c(OC(=O)c3ccc(Br)cc3)cc1-2 [Compound 10p, 4-ethyl-5-methyl-8,9-di(4-bromo)benzoyloxy-5,6-dihydro-phenanthridine]			CC50 (Huh7.5 cells): > 100 µM; EC50 (HCV; 72 hrs, read-out: EC50): 1.19 ± 0.02 µM
CCc1cccc2c1N(C)Cc1cc(OCc3cn(CCNC(C)=O)nn3)c(OCc3cn(CCNC(C)=O)nn3)cc1-2 [Compound 10r, 4-ethyl-5-methyl-8,9-bis[1-(2-acetylamino-ethyl)-1H-[1,2,3]triazol-4-ylmethoxy]-5,6-dihydro-phenanthridine]			activation of the reporter gene systems of classical Wnt signaling pathway (Wnt signaling pathway): activate the reporter gene systems of classical Wnt signaling pathway; Concentration of compounds for doubly synergetic activating Wnt reporter gene (Wnt signaling pathway): 1.25 µM
C=Cc1cccc2c1N(C)Cc1cc(O)c(O)cc1-2 [Compound 11, 4-ethenyl-5-methyl-5,6-dihydrophenanthridine-8,9-diol]	> 100 µM	8.37 ± 2.39 µM	
C=CCOc1cc2c(cc1OCC=C)-c1cccc(C=C)c1N(C)C2 [Compound 11a, 4-ethenyl-5-methyl-8,9-diallyloxy-5,6-dihydro-phenanthridine]	> 100 µM	28.8 ± 5.38 µM	
C#CCOc1cc2c(cc1OCC#C)-c1cccc(C=C)c1N(C)C2 [Compound 11b, 4-ethenyl-5-methyl-8,9-di(prop-2-ynyloxy)-5,6-dihydro-phenanthridine]	> 100 µM	4.2 ± 1.72 µM	
C=Cc1cccc2c1N(C)Cc1cc(OCC3CCC3)c(OCC3CCC3)cc1-2 [Compound 11c, 4-ethenyl-5-methyl-8,9-bis-cyclobutylmethoxy-5,6-dihydro-phenanthridine]	> 100 µM	11.3 ± 1.66 µM	
C=Cc1cccc2c1N(C)Cc1cc(OCC3CCCCC3)c(OCC3CCCCC3)cc1-2 [Compound 11d, 4-ethenyl-5-methyl-8,9-bis-cyclohexylmethoxy-5,6-dihydro-phenanthridine]	> 100 µM	> 33.3 µM	
C=Cc1cccc2c1N(C)Cc1cc(OCc3ccccc3)c(OCc3ccccc3)cc1-2 [Compound 11e, 4-ethenyl-5-methyl-8,9-dibenzyloxy-5,6-dihydro-phenanthridine]	> 100 µM	13.4 ± 0.98 µM	
C=Cc1cccc2c1N(C)Cc1cc(OC(C)=O)c(OC(C)=O)cc1-2 [Compound 11h, 4-ethenyl-5-methyl-8,9-diacetoxy-5,6-dihydro-phenanthridine]	> 100 µM	1.63 ± 0.91 µM	
C=Cc1cccc2c1N(C)Cc1cc(OC(=O)CC)c(OC(=O)CC)cc1-2 [Compound 11i, 4-ethenyl-5-methyl-8,9-dipropionyloxy-5,6-dihydro-phenanthridine]	> 100 µM	1.02 ± 0.16 µM	
C=Cc1cccc2c1N(C)Cc1cc(OC(=O)C(C)C)c(OC(=O)C(C)C)cc1-2 [Compound 11j, 4-ethenyl-5-methyl-8,9-diisobutyryloxy-5,6-dihydro-phenanthridine]	> 100 µM	1.83 ± 0.17 µM	
C=Cc1cccc2c1N(C)Cc1cc(OC(=O)CC(C)C)c(OC(=O)CC(C)C)cc1-2 [Compound 11l, 4-ethenyl-5-methyl-8,9-diisovaleroxy-5,6-dihydro-phenanthridine]	> 100 µM	3.27 ± 1.26 µM	
C=Cc1cccc2c1N(C)Cc1cc(OC(=O)c3ccccc3)c(OC(=O)c3ccccc3)cc1-2 [Compound 11m, 4-ethenyl-5-methyl-8,9-dibenzoyloxy-5,6-dihydro-phenanthridine]	> 100 µM	1.03 ± 0.07 µM	
C=Cc1cccc2c1N(C)Cc1cc(OCc3cn(CCN)nn3)c(OCc3cn(CCN)nn3)cc1-2 [Compound 11q, 4-ethenyl-5-methyl-8,9-bis[1-(2-amino-ethyl)-1H-[1,2,3]triazol-4-ylmethoxy]-5,6-dihydrophenanthridine]			activation of the reporter gene systems of classical Wnt signaling pathway (Wnt signaling pathway): activate the reporter gene systems of classical Wnt signaling pathway; Concentration of compounds for doubly synergetic activating Wnt reporter gene (Wnt signaling pathway): 2.5 µM
C=Cc1cccc2c1N(C)Cc1cc(OCc3cn(CCNC(C)=O)nn3)c(OCc3cn(CCNC(C)=O)nn3)cc1-2 [Compound 11r, 4-ethenyl-5-methyl-8,9-bis[1-(2-acetylamino-ethyl)-1H-[1,2,3]triazol-4-ylmethoxy]-5,6-dihydro-phenanthridine]			activation of the reporter gene systems of classical Wnt signaling pathway (Wnt signaling pathway): activate the reporter gene systems of classical Wnt signaling pathway; Concentration of compounds for doubly synergetic activating Wnt reporter gene (Wnt signaling pathway): 5 µM

Source: patent US9682954B2, “Phenanthridine derivatives, preparation methods and uses thereof” (Kunming Institute of Botany, The Chinese Academy of Sciences, priority 2013, dated 2017)
